Drawing on PubChem BioAssay (NCI), this text covers TGI and GI50 for 31 compounds.

Assay in all cases: NCI anticancer screen, dose series, 48 h
Assay [1] has as its system SW-620 colon.
Assay [2] concerns SK-MEL-5 melanoma.
The test system of assay [3] is RPMI-8226 leukemia.
The test system of assay [4] is NCI-H460 lung.
The test system of assay [5] is SK-MEL-28 melanoma.
The subject of assay [6] is HCC-2998 colon.
Assay [7] concerns A498 renal.
Assay [8] deals with SNB-75 CNS.
Assay [9] has as its system NCI-H522 lung.

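Results reflect a 48-hour exposure of cells in 96-well plates to compound at five concentrations. At the GI50, growth is halved. TGI: total growth inhibition.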

In the case of `O=C(O)/C(=C/C=C/c1ccccc1)c1csc(-c2nc(/C(=C\C=C\c3ccccc3)C(=O)O)cs2)n1`, the TGI in assay [1] was over 100 µM; in assay [2], 86.3 µM; in [3], 65.3 µM; in [4], over 100 µM; in [5], over 100 µM; in [6], 59.7 µM. Further, the results for the TGI in [7] and in assay [8] were over 100 µM and 98.7 µM, respectively.

`C1CCN(c2nc(=[N+]3CCCCC3)ss2)CC1`: the TGI in assay [1], in assay [2], in assay [3], in assay [4], in assay [5] and in assay [6] was over 100 µM each time. The TGI in assay [7], in assay [9] and in [8] was over 100 µM in each case.

Regarding `COc1cc(OC)c(C2CC=Cc3c(OC)cc(OC)c(OC)c32)cc1OC` (centres undefined), the TGI in assay [1], in assay [2], in [3], in [4], in assay [5] and in assay [6] was over 100 µM each time. For the same compound, the TGI in assay [7] and in [8] was over 100 µM each time.

For `Clc1ccc(C2SCc3nc4ccccc4n32)cc1Cl` (centres undefined), the TGI in assay [1] is 28.6 µM; in assay [2], 21 µM; in assay [3], 96.1 µM; in [4], 28.1 µM; in [5], 25.4 µM; in assay [9], 25 µM. In assay [8], this compound returned a TGI of 14.3 µM.

Turning to `CCC(=O)c1c(NOC2OC(COC(C)=O)C(OC(C)=O)C(OC(C)=O)C2OC(C)=O)nc(OC)n(C)c1=O` (centres undefined), the TGI in [1], in [2], in assay [4], in [5], in assay [6] and in assay [9] was over 100 µM in each case. The compound also came in with a TGI in assay [8] of over 100 µM.

Turning to `CN1CCN(c2ccc3nc(-c4ccc5nc(-c6ccc(OCCC(C)(C)C)cc6)[nH]c5c4)[nH]c3c2)CC1`, the GI50 in assay [1] was 2.12 µM; in [2], 12.7 µM; in [3], 2.86 µM; in assay [4] it was 2.13 µM; in assay [5], 3.03 µM; in [6], 5.06 µM. In addition, the GI50 in [7] was 17.5 µM; in [9] it was 13.6 µM; in [8], 3.46 µM. The TGI in assay [1] was 3.96 µM; in assay [2] it was 27.6 µM; in assay [3], 7.44 µM; in assay [4] it was 3.97 µM; in assay [5], 9.43 µM; in [6], 18.5 µM. Also, the TGI came to 35.1 µM in assay [7], 38.1 µM in [9] and 18 µM in [8].

Take `NCCCNCCCCN(CCCN)/[N+]([O-])=N\O`: the TGI in assay [1], in assay [2], in assay [3], in assay [4], in assay [5] and in assay [6] was over 100 µM in each case. For the same compound, the TGI in assay [8] is over 100 µM.

As for `COc1cc2c3c(c1OC)-c1c(ccc4c1OCO4)CC3(C#N)N(C(=O)c1ccccc1)CC2` (centres undefined), the TGI in [1], in [2], in assay [3], in [4], in [7] and in assay [9] was over 100 µM throughout. The same compound displayed a TGI in assay [8] of 49.4 µM.

Turning to `COC(=O)c1c(N)n[nH]c1N`, the TGI in [1], in assay [2], in assay [3], in [4], in assay [5] and in [6] was over 100 µM each time. In addition, the TGI in assay [7], in assay [9] and in [8] was over 100 µM throughout.

As to `CC(=O)c1ccc(NC(=O)C(=O)Nn2c(=S)[nH]c3ccccc3c2=O)cc1`, the TGI in assay [1], in [2], in assay [3], in assay [4], in assay [5] and in assay [6] was over 100 µM each time. The TGI in [7], in assay [9] and in [8] was over 100 µM each time.

For the compound `O=C(Nc1nc2ncn(CCNCc3ccccc3)c2c(=O)[nH]1)c1ccccc1`, the TGI in assay [1], in assay [2], in assay [3], in [4], in [5] and in assay [6] was over 100 µM in each case. In addition, the TGI in assay [7], in assay [9] and in [8] was over 100 µM each time.

In the case of `Cc1cc(C)nc(NS(=O)(=O)c2ccc(Nc3c4ccc(Cl)cc4nc4c(C(=O)Nc5ccc(S(N)(=O)=O)cc5)cccc34)cc2)n1`, the TGI in assay [3] is 76.5 µM; in assay [4] it was 60.8 µM; in [5], over 100 µM; in [6] it was 30.9 µM; in [7], 32.6 µM; in [9], 24.1 µM. Besides, the TGI in assay [8] is over 100 µM.

On to `COC(=O)CCC(=O)CC(=O)C(=O)Nc1c(Cl)cc([N+](=O)[O-])cc1Cl`, for which the TGI in [2] is over 100 µM; in assay [3], 88.1 µM; in assay [4], over 100 µM; in assay [5], over 100 µM; in [6], over 100 µM; in assay [7], over 100 µM. For the same compound, the TGI in assay [9] and in [8] was over 100 µM in each case.

Regarding `O=C(CC1(O)C(=O)Nc2c(Cl)cc(Cl)cc21)c1cccc2ccccc12` (centres undefined), the TGI in assay [1] turned out to be 31.8 µM; in [2] it was 28.4 µM; in [3] it was 47.4 µM; in assay [4], 31.1 µM; in assay [5], 34.1 µM; in [7], 37.3 µM. Moreover, the TGI is 28.9 µM in assay [9] and 33.1 µM in assay [8].

`O=CC[C@H]1CCc2ccccc2C12CCC(=O)CC2`: the TGI in assay [1], in assay [2], in assay [3], in assay [4], in [6] and in [7] was over 100 µM in each case. The TGI in assay [9] and in assay [8] was over 100 µM in each case.

On to `CC(C)(C)c1cc2c3c(c1)C(C(F)(F)F)(C(F)(F)F)O[Te]3(C)OC2(C(F)(F)F)C(F)(F)F`, for which the TGI in assay [1], in assay [3], in assay [4], in assay [5], in [6] and in [9] was over 100 µM each time.

As to `O=C1C2C3C=CC(C2C(=O)N1COP(=O)(O)O)C1C2C(=O)N(COP(=O)(O)O)C(=O)C2C31` (centres undefined), the TGI in assay [1] was over 65.2 µM; in [2] it was over 100 µM; in assay [3] it was over 68.5 µM; in assay [4], over 59.5 µM; in [5], over 100 µM; in [6] it was over 100 µM. In addition, the TGI in [7], in assay [9] and in assay [8] was over 100 µM each time.

For `Fc1ccccc1C1CC(c2ccc3ccccc3c2)=Nc2ccccc2S1` (centres undefined), the TGI in assay [1], in assay [4], in assay [5], in [6], in [7] and in assay [9] was over 100 µM in each case.

As to `O=[N+]([O-])c1cccc(-c2oc(C=Nc3ccccc3)c([N+](=O)[O-])c2-c2cccc([N+](=O)[O-])c2)c1`, the TGI in assay [1], in assay [2], in [3], in assay [4], in assay [5] and in assay [6] was over 100 µM each time. For the same compound, the TGI in assay [7], in assay [9] and in assay [8] was over 100 µM in each case.

Consider `C[C@]1(CO)CCC[C@@]2(C)C1CC[C@H]1CC3C[C@]12CC[C@]3(C)O` (some centres undefined), for which the TGI in assay [1] is over 100 µM; in assay [2], 35.2 µM; in assay [3], over 100 µM; in [4] it was 36.8 µM; in assay [5], over 100 µM; in assay [6] it was over 100 µM. Besides, the TGI is 31.1 µM in [9] and over 100 µM in [8].

Turning to `C=C(Br)N(CC)CC`, the TGI in [1], in assay [2], in assay [3], in assay [4], in assay [5] and in [6] was over 100 µM in each case. In addition, the TGI in assay [7], in assay [9] and in [8] was over 100 µM in each case.

As for `COC1OC(COCc2ccc(Cl)cc2)C(OCc2ccc(Cl)cc2)C1N=[N+]=[N-]` (centres undefined), the TGI in [1], in [2], in [3], in [4], in [5] and in assay [6] was over 100 µM in each case. The TGI in assay [9] and in [8] was over 100 µM in each case.

Turning to `C1=CC=C2NCCCNC3=CC=CC=CC3=NCCCN=C2C=C1`, the TGI in [1], in assay [2], in assay [3], in assay [4], in [5] and in [6] was over 100 µM each time. Further, the TGI in assay [7] and in [8] was over 100 µM throughout.

`CN(C)CCNC(=O)c1cccc2c1nc(-c1ccccc1)c1ccccc12`: the TGI in assay [1] came to 15.5 µM; in assay [2], 5.52 µM; in assay [4], 13.3 µM; in assay [5], 21.3 µM; in assay [6], 15.9 µM; in assay [7] it was 16.9 µM. For the same compound, the TGI in assay [8] worked out at 19.9 µM.

Consider `O=C(Cc1nc2ccccc2s1)Nc1cccc(C(F)(F)F)c1`, for which the TGI in assay [1] was 43.2 µM; in assay [2], 32.2 µM; in [3], 28.7 µM; in assay [4], 41.4 µM; in [5] it was 28.8 µM; in assay [6], 29.4 µM. Also, the results for the TGI in assay [7], in [9] and in [8] were 22.3 µM, 28.4 µM and 26.8 µM, respectively.

For `COCCCNC(=O)CC(=O)NCCCOC`, the TGI in [1], in assay [2], in assay [3], in assay [4], in [5] and in [6] was over 100 µM throughout. The TGI in [7] and in assay [9] was over 100 µM each time.

Take `CS(=O)(=O)N(N(CCCl)S(=O)(=O)c1ccccc1)S(C)(=O)=O`: the TGI in [1], in [2], in assay [3], in assay [4], in assay [5] and in assay [6] was over 100 µM each time. Besides, the TGI in [9] and in assay [8] was over 100 µM each time.

For the compound `S=c1cc(S)sc2c1c(=S)sc1nc3ccccn3c(=S)c12`, the TGI in assay [1] is over 100 µM; in [2], over 100 µM; in assay [3] it was over 100 µM; in assay [4], 92.1 µM; in assay [5] it was over 100 µM; in assay [6], over 100 µM. Moreover, the TGI in assay [7] and in assay [8] was over 100 µM each time.

As for `O=C(Cn1ccnc1[N+](=O)[O-])c1ccc(F)cc1`, the TGI in assay [1], in [2], in assay [3], in assay [4], in assay [5] and in [7] was over 100 µM in each case. Further, the TGI in assay [9] and in [8] was over 100 µM in each case.

As to `O=C(CCC(=O)C(C(=O)c1ccccc1)c1ccccc1)Nc1cccc(C(F)(F)F)c1` (centres undefined), the TGI in [1], in assay [3], in assay [4], in [6], in [7] and in [9] was over 100 µM throughout.

For `CCCCCCCCCCCCCP(=O)(O)OCC`, the TGI in assay [1], in assay [2], in [4], in [5], in assay [6] and in [7] was over 100 µM in each case. Further, the TGI in assay [9] and in assay [8] was over 100 µM each time.
